Data reported in patent US20170290878A1, “METHODS OF TREATING CANCER WITH TUBULYSIN CONJUGATES” (Endocyte, Inc., priority 2014, published 2017).
Structures can show the parent of a compound that is named as a salt.

Columns and labels:
LU2505 tumors = test: Antitumor activity in Huprime NSCLC PDX tumor model LU2505; format: in vivo, mice
Experimental: (§1) These studies were performed at Crown Bioscience (Beijing) Inc., Ground Floor, Light Muller Building, Changping Sector of Zhongguancun Scientific Park, No. 21 Huoju Road, Changping District, Beijing, P.R. China.

LU1147 tumors = test: Antitumor activity in Huprime NSCLC PDX tumor model LU1147; format: in vivo, mice
Experimental: as §1

[1] = Phase 1 dose-escalation study: safety, DLT; format: in vivo, human
Experimental: Compound I was administered via IV bolus injection.

ST502 TNBC tumors = test: Antitumor activity in Triple Negative Breast Cancer (TNBC) ST502 model; format: in vivo, mice
Experimental: (§2) These materials were obtained from and studies were performed at South Texas Accelerated Research Therapeutics, 4383 Medical Drive, San Antonio, Tex. 78229

ST738 TNBC tumors = test: Antitumor activity in Triple Negative Breast Cancer (TNBC) ST738 model; format: in vivo, mice
Experimental: as §2

large KB tumors = test: Antitumor activity in large KB tumor model; format: in vivo, mice; conditions: EC1456 2 μmol/kg, three times a week for two weeks
Experimental: Female Balb/c nu/nu mice were fed ad libitum with folate-deficient chow (Harlan diet #TD01013) for the duration of the experiment. KB tumor cells were inoculated subcutaneously at the right flank of each mouse.
Growth of each s.c. tumor was followed by measuring the tumor two times per week. Tumors were measured in two perpendicular directions using Vernier calipers, and their volumes were calculated as 0.5×L×W^2, where L=measurement of longest axis in mm and W=measurement of axis perpendicular to L in mm.

ST040 Endometrial tumors = test: Antitumor activity in Endometrial ST040 model; format: in vivo, mice
Experimental: as §2

ST024 Ovarian tumors = test: Antitumor activity in Ovarian ST024 model; format: in vivo, mice
Experimental: as §2

KB-PR10 tumors = test: Antitumor activity on paclitaxel resistant KB-PR10 tumors in nu/nu mice; format: in vivo; conditions: three times a week for two weeks
Experimental: Four to six week-old female nu/nu mice (Harlan Sprague Dawley, Inc., Indianapolis, Ind.) were maintained on a standard 12 h light-dark cycle and fed ad libitum with folate-deficient chow (Harlan diet #TD00434, Harlan Teklad, Madison, Wis.) for the duration of the experiment. FR-positive paclitaxel resistant KB-PR10 cells were grown continuously as a monolayer, using folate-free RPMI medium (FFRPMI) containing 5% heat-inactivated fetal calf serum (HIFCS) at 37° C. in a 5% CO2/95% air-humidified atmosphere with no antibiotics. KB-PR10 cells (1×10^6 per nu/nu mouse) in 100 μL were injected in the subcutis of the dorsal medial area. […] Mice were treated with 20 mg/kg Paclitaxel, 2 μmol/kg EC145 (See WO2004/069159 for a description of EC145) or 1 μmol/kg Compound I on a three times a week for 2 weeks schedule when the tumors were approximately 100-145 mm^3, 101-129 mm^3 and 100-140 mm^3 in volume, respectively. The mice in the control groups received no treatment. […] All in vivo studies were performed in accordance with the American Accreditation Association of Laboratory Animal Care guidelines.

[2] = EC1456 2 μmol/kg, two times a week for two weeks
[3] = EC1456 4 μmol/kg, once a week for two weeks
[4] = DL1 and DL2 (0.5 and 1.0 mg/m^2, BIW), 6 patients
[5] = EC1456 2 μmol/kg, two times a week for two weeks (BIW×2)
[6] = EC1456 4 μmol/kg, once a week for two weeks (SIW×2)
[7] = EC1456 1.5 μmol/kg, two times a week for two weeks (BIW×2)
[8] = EC1456 3 μmol/kg, once a week for two weeks (SIW×2)
[9] = Eribulin mesylate 1 mg/kg, once a week for two weeks (SIW×2)
[10] = Paclitaxel 15 mg/kg, once a week for two weeks (SIW×2)

CC(=O)O[C@@]12CO[C@@H]1C[C@H](O)[C@@]1(C)C(=O)[C@H](O)C3=C(C)[C@@H](OC(=O)[C@H](O)[C@@H](NC(=O)OC(C)(C)C)c4ccccc4)C[C@@](O)([C@@H](OC(=O)c4ccccc4)[C@H]21)C3(C)C [Docetaxel]
CR's (LU2505 tumors; Docetaxel 15 mg/kg, one dose): 2 | PR's (LU2505 tumors; Docetaxel 15 mg/kg, one dose): 2 | anti-tumor activity (LU2505 tumors; Docetaxel 15 mg/kg, one dose): some anti-tumor activity | cures (LU2505 tumors; Docetaxel 15 mg/kg, one dose): 2 | animals exhibiting stable disease (LU1147 tumors; Docetaxel 15 mg/kg, one dose): 2 animals | anti-tumor activity (LU1147 tumors; Docetaxel 15 mg/kg, one dose): minimal anti-tumor activity

CCCC(=O)OCN(C(=O)[C@@H](NC(=O)[C@H]1CCCCN1C)C(C)CC)[C@H](C[C@@H](OC(C)=O)c1nc(C(=O)N[C@@H](Cc2ccc(O)cc2)C[C@H](C)C(=O)NNC(=O)OCCSSC[C@@H](NC(=O)[C@H](CCC(=O)NC[C@H](O)[C@@H](O)[C@H](O)[C@H](O)CO)NC(=O)[C@@H](CCC(=O)O)NC(=O)[C@H](CCC(=O)NC[C@H](O)[C@@H](O)[C@H](O)[C@H](O)CO)NC(=O)[C@@H](CCC(=O)O)NC(=O)[C@H](CCC(=O)NC[C@H](O)[C@@H](O)[C@H](O)[C@H](O)CO)NC(=O)CC[C@@H](NC(=O)c2ccc(NCc3cnc4nc(N)[nH]c(=O)c4n3)cc2)C(=O)O)C(=O)O)cs1)C(C)C (some centres unmarked) [EC1456]
cures (LU2505 tumors; [2]): 7 of 7 | cures (LU2505 tumors; [3]): 7 of 7 | animals exhibiting stable disease (LU1147 tumors; [2]): 5 animals | animals exhibiting stable disease (LU1147 tumors; [3]): 6 animals | Grade 4 or treatment-related Grade 3 TEAEs ([1]; DL1 (0.5 mg/m^2, BIW)): No Grade 4 or treatment-related Grade 3 TEAEs were observed | severity of TEAEs (tinnitus, constipation, asthenia, ataxia, dizziness, orthostatic hypotension) ([1]; DL1 (0.5 mg/m^2, BIW)): mild and self-limited | SAE ([1]; DL1 (0.5 mg/m^2, BIW), Grade 3 vomiting in cycle 6, attributed to a viral syndrome): one | deaths on treatment or within 30 days of study discontinuation, treatment related SAEs, DLTs [1, 4]: No deaths occurred on treatment or within 30 days of study discontinuation, treatment related serious adverse events (SAEs) or DLTs | dose delays, omissions, or reductions due to toxicity [1, 4]: no dose delays, omissions, or reductions due to toxicity | SAEs ([1]; DL2 (1.0 mg/m^2, BIW)): no SAEs | severity of TEAEs (abdominal pain, diarrhea, vomiting, hypoglycemia, pain) ([1]; DL2 (1.0 mg/m^2, BIW)): mild and self-limited | ≧Grade 3 TEAEs regardless of relatedness ([1]; DL2 (1.0 mg/m^2, BIW)): no ≧Grade 3 TEAEs observed | cumulative or late-emerging treatment-related AEs ([1]; either dose level (DL1, DL2)): no evidence of cumulative or late-emerging treatment-related AEs | anti-tumor activity (ST502 TNBC tumors; [5]): no anti-tumor activity | anti-tumor activity (ST502 TNBC tumors; [6]): no anti-tumor activity | animals exhibiting PR's (ST738 TNBC tumors; [5]): 3 animals | anti-tumor activity (ST738 TNBC tumors; [5]): some anti-tumor activity | cure (ST738 TNBC tumors; [5]): 2 | animals exhibiting PR's (ST738 TNBC tumors; [6]): 5 animals | anti-tumor activity (ST738 TNBC tumors; [6]): some anti-tumor activity | anti-tumor activity (large KB tumors): excellent anti-tumor activity | cures (large KB tumors; 1000 mm^3 tumor group): 100% | cures (large KB tumors; 1400 mm^3 tumor group): 100% | animal exhibiting PR (ST040 Endometrial tumors; [7]): 1 animal | anti-tumor activity (ST040 Endometrial tumors; [7]): slightly better anti-tumor activity | anti-tumor activity (ST040 Endometrial tumors; [8]): slightly better anti-tumor activity | partial response (PR) (ST040 Endometrial tumors; [8]): 1 | animals exhibiting cures (ST024 Ovarian tumors; [5]): 100% | anti-tumor activity (ST024 Ovarian tumors; [5]): curative | animals exhibiting cures (ST024 Ovarian tumors; [6]): 100% | anti-tumor activity (ST024 Ovarian tumors; [6]): curative | cure (ST024 Ovarian tumors; [6]): 5 | partial response (PR) (ST024 Ovarian tumors; [6]): 2 | anti-tumor activity (KB-PR10 tumors; 2 μmol/kg): no-anti-tumor activity | PRs (KB-PR10 tumors; EC1456 1 μmol/kg): 60% | antitumor activity (KB-PR10 tumors; EC1456 1 μmol/kg): good antitumor activity | cures (KB-PR10 tumors; EC1456 1 μmol/kg): 40%

C=C1C[C@@H]2CC[C@@]34C[C@H]5O[C@H]6[C@@H](O3)[C@H]3O[C@H](CC[C@@H]3O[C@H]6[C@H]5O4)CC(=O)C[C@@H]3[C@@H](OC)[C@@H](C[C@H](O)CN)O[C@H]3C[C@H]3O[C@@H](CC[C@@H]1O2)C[C@@H](C)C3=C [Eribulin mesylate, reference compound]
animal exhibiting PR (ST502 TNBC tumors; [9]): 1 animal | anti-tumor activity (ST502 TNBC tumors; [9]): minimal anti-tumor activity | PR's (ST738 TNBC tumors; [9]): 2 | anti-tumor activity (ST738 TNBC tumors; [9]): some anti-tumor activity

CC(=O)O[C@H]1C(=O)[C@@]2(C)[C@H]([C@H](OC(=O)c3ccccc3)[C@]3(O)C[C@H](OC(=O)[C@H](O)[C@@H](NC(=O)c4ccccc4)c4ccccc4)C(C)=C1C3(C)C)[C@]1(OC(C)=O)CO[C@@H]1C[C@@H]2O [Paclitaxel, reference compound]
anti-tumor activity (ST040 Endometrial tumors; [10]): minimal anti-tumor activity | anti-tumor activity (ST024 Ovarian tumors; [10]): no anti-tumor activity | anti-tumor activity (KB-PR10 tumors; paclitaxel 20 mg/kg): little to no anti-tumor activity
